Reference: ChEMBL document CHEMBL2007661, “Compounds: GSK PKIS; Assays: UNC Frye lab” (2012)
Several values for one entry are separate records, joined by “and”; a condition that tells them apart may be missing. Equal entries are not always repeated. One block for each compound: values may come before it.

Experiments:
[1] = target: T1, Serine/threonine-protein kinase TBK1 (Homo sapiens) (UniProt Q9UHD2); settings: at 1 µM
T1 sequence (whole entry): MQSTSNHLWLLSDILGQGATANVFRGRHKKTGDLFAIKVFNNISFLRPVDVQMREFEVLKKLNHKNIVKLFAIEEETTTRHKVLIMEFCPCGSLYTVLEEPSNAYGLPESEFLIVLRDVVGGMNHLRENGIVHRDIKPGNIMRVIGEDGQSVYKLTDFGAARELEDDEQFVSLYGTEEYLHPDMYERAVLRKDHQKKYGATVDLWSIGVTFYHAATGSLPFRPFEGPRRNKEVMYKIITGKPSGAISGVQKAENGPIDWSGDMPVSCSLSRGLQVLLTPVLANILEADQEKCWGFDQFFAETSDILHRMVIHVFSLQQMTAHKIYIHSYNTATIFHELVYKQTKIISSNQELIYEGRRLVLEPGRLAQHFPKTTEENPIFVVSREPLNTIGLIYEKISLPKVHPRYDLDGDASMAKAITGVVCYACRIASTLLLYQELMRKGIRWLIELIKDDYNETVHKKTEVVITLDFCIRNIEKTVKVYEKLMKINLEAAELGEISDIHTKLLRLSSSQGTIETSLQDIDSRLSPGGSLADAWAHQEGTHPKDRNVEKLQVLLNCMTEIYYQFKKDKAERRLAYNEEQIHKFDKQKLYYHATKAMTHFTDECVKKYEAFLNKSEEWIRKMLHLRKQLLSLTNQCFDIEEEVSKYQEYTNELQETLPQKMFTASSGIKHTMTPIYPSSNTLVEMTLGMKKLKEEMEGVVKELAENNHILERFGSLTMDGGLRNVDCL

[2] = target: T2, Inhibitor of nuclear factor kappa-B kinase subunit epsilon (Homo sapiens) (UniProt Q14164); settings: at 1 µM
T2 sequence (whole entry): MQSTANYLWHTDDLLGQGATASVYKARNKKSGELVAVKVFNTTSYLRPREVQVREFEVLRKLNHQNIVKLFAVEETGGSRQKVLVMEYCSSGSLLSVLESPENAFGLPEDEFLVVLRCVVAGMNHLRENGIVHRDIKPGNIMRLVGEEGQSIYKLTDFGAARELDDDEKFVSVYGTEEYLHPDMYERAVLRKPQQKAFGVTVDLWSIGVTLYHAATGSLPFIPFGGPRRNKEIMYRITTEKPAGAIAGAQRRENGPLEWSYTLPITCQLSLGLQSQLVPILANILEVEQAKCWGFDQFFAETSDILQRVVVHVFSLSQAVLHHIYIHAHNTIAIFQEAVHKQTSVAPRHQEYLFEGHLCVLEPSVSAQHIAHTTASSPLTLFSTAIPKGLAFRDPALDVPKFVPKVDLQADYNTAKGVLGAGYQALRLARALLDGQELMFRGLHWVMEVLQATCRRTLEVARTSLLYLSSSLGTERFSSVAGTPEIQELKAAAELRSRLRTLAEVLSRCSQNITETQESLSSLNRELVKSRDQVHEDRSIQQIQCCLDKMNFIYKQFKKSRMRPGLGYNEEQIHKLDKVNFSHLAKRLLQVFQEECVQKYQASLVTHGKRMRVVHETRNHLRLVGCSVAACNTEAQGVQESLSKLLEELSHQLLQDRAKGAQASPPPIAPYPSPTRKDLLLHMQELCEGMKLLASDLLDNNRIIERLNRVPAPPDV

[3] = target: T3, Tyrosine-protein kinase Mer (Homo sapiens) (UniProt Q12866); settings: at 10 µM
T3 sequence (whole entry): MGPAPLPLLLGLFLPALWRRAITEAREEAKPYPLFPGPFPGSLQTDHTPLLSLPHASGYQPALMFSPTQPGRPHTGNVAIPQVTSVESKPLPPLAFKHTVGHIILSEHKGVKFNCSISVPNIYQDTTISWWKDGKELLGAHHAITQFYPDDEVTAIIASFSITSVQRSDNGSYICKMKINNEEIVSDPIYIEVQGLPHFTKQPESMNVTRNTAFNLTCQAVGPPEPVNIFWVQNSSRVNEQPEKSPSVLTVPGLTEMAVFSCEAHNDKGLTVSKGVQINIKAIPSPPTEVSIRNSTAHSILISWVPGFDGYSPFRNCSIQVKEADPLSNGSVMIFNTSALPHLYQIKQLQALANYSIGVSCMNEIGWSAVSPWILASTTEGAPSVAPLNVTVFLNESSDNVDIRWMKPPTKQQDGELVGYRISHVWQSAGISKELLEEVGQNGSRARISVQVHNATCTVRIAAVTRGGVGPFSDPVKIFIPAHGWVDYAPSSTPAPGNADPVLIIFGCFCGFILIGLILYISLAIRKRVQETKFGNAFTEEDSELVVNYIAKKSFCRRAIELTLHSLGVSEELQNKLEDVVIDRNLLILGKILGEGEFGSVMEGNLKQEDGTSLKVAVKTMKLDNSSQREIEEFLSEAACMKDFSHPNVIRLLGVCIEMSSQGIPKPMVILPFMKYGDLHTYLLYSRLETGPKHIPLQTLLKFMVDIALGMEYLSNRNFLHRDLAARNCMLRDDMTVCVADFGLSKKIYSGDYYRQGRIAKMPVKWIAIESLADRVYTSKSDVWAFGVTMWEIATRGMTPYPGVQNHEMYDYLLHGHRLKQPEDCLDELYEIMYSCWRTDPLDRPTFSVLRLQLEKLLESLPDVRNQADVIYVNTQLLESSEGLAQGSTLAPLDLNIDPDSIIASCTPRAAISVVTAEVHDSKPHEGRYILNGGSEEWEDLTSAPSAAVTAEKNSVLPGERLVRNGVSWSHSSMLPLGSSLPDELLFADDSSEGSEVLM

[4] = target: T4, Inhibitor of nuclear factor kappa-B kinase subunit alpha (Homo sapiens) (UniProt O15111); settings: at 1 µM
T4 sequence (whole entry): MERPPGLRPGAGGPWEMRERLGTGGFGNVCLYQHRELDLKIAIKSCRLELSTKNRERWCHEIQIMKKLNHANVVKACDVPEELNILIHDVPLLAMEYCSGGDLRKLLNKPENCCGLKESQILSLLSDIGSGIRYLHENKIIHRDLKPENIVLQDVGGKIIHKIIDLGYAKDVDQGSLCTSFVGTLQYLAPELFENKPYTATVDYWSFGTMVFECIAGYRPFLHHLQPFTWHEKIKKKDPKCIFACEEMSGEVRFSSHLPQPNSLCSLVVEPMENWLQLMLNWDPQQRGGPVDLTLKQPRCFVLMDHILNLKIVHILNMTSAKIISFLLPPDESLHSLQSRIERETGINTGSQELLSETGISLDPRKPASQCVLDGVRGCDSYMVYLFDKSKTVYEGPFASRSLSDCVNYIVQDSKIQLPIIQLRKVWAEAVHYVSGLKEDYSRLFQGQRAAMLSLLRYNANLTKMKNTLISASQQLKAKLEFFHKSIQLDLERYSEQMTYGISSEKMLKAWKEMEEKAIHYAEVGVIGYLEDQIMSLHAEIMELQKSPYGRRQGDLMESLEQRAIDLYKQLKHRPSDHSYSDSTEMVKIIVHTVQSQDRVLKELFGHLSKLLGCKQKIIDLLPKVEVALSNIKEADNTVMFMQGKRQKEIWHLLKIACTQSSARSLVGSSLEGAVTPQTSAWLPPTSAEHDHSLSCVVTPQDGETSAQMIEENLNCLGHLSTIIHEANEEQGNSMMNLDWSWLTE

[5] = target: T5, Inhibitor of nuclear factor kappa-B kinase subunit beta (Homo sapiens) (UniProt O14920); settings: at 1 µM
T5 sequence (whole entry): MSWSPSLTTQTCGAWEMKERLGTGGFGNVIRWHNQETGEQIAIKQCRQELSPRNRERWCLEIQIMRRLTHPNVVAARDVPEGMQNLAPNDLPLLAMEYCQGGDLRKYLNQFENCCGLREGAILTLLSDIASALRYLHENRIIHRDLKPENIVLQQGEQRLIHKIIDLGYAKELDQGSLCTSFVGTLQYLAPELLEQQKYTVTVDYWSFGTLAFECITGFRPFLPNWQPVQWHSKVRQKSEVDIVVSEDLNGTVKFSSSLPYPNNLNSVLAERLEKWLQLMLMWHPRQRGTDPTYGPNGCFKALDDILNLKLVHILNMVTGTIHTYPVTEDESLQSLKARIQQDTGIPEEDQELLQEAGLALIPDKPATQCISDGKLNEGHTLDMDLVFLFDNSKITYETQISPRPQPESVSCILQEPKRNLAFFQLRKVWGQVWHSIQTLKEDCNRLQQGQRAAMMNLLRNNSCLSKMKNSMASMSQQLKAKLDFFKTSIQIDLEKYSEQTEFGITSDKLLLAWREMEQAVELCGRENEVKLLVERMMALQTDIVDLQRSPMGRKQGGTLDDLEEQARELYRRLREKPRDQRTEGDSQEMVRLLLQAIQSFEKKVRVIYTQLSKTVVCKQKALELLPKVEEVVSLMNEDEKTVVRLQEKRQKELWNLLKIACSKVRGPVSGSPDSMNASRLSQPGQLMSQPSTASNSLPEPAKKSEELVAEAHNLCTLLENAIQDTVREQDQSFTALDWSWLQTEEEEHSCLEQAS

inhibition [1]: 16% and 21% | inhibition [2]: 2% and 0% | inhibition [3]: 22% | inhibition [5]: 2% and 1%
Compound: NC(=O)c1cc(-c2ccc(F)cc2)cc(-c2ccncc2)c1N

inhibition [1]: 6% and 8% | inhibition [2]: 3% | inhibition [3]: 55% | inhibition [4]: -10% and 3%
Compound: C[C@@H](Oc1cc(-n2cnc3ccc(OCC4CCN(C)CC4)cc32)sc1C(N)=O)c1ccccc1Cl

inhibition [1]: 4% and -2% | inhibition [2]: 12% and 9% | inhibition [5]: -2% and -4%
Compound: Fc1ccc(-c2nn3ncccc3c2-c2ccnc(Nc3ccc4c(c3)OCCO4)n2)cc1

inhibition [1]: -5% and -3% | inhibition [2]: -4% and -6% | inhibition [4]: 5% and 4% | inhibition [5]: -4% and -8%
Compound: COC(=O)Nc1nc2ccc(Oc3ccc(NC(=O)Nc4cc(C(F)(F)F)ccc4F)cc3)cc2s1

inhibition [1]: 24% and 31% | inhibition [2]: 11% and 20% | inhibition [3]: 98% | inhibition [4]: 0% and 2%
Compound: COc1cccc(Nc2nccc(-c3cnn4ncccc34)n2)c1

inhibition [1]: -1% (2×) and 2% and 1% | inhibition [2]: 12% [middle of 4 runs] | inhibition [4]: 2% [middle of 4 runs] | inhibition [5]: -7% and -4%
Compound: Nc1ncnc2occ(-c3ccc(NC(=O)Nc4cc(C(F)(F)F)ccc4F)cc3)c12

inhibition [1]: 4% and 3% | inhibition [2]: 0% | inhibition [4]: 7% and 6% | inhibition [5]: -6%
Compound: O=C(Nc1n[nH]c2nc(-c3ccco3)ccc12)C1CC1

inhibition [1]: 10% and 13% | inhibition [2]: 14% | inhibition [3]: -1% | inhibition [5]: -1% and 0%
Compound: NC(=O)c1cc(-c2ccncc2)cc(-c2ccccc2)c1N

Continued, compound first:

Compound: Clc1ccc(-c2nn3ncccc3c2-c2ccnc(Nc3ccccc3)n2)cc1
inhibition [1]: -2% and -3% | inhibition [2]: 0% and 1% | inhibition [3]: -9% | inhibition [4]: 50%

Compound: c1cc(-c2cnn3nc(N4CCOCC4)ccc23)nc(NC2CC2)n1
inhibition [1]: 5% and 6% | inhibition [2]: 5% and 6% | inhibition [3]: -4% | inhibition [4]: -2% and -3%

Compound: C[C@@H](Oc1cc(-n2cnc3ccc(OC4CCN(C)CC4)cc32)sc1C(N)=O)c1ccccc1Cl
inhibition [1]: 7% and 3% | inhibition [2]: 1% and 5% | inhibition [3]: -2% | inhibition [5]: -1% and -2%

Compound: Cc1ccc(NC(=O)CC2CC2)cc1-c1ccc(C(=O)NCC2CC2)cc1
inhibition [1]: -1% and 1% | inhibition [2]: 0% | inhibition [4]: 1% and 0% | inhibition [5]: -2% and -1%

Compound: CCn1c(-c2nonc2N)nc2cnc(Oc3cccc(NC(=O)c4ccc(OCCN5CCOCC5)cc4)c3)cc21
inhibition [1]: 12% | inhibition [2]: 45% and 46% | inhibition [3]: 10% | inhibition [5]: 3%

Compound: N#Cc1cccc(Nc2nccc(-c3cnn4ncccc34)n2)c1
inhibition [1]: 37% and 39% | inhibition [2]: 35% and 37% | inhibition [4]: -9% | inhibition [5]: -4% and 0%

Compound: Nc1nccc(-c2c(-c3ccc(F)cc3)ncn2C2CCNCC2)n1
inhibition [1]: 0% [middle of 4 runs] | inhibition [2]: 1% [middle of 4 runs] | inhibition [4]: 4% (2×) and 5% and 3% | inhibition [5]: -4% and -5%

Compound: Fc1cccc(COc2ccc(Nc3ncnc4cc(-c5ccc[nH]5)sc34)cc2Cl)c1
inhibition [1]: 0% and -4% | inhibition [2]: -1% | inhibition [4]: 60% and 64% | inhibition [5]: 3% and 2%

Compound: CCS(=O)(=O)c1ccc(OC)c(Nc2ncc(-c3cccc(C(C)=O)c3)o2)c1
inhibition [1]: 7% and 5% | inhibition [2]: 1% | inhibition [3]: 65% | inhibition [4]: -1%

Compound: CC(C)c1ccc2c(c1)NC(=O)/C2=N/Nc1ccc(S(N)(=O)=O)cc1
inhibition [1]: -5% and -1% | inhibition [2]: 0% | inhibition [3]: -10% | inhibition [4]: 5% and 4%

Compound: CCS(=O)(=O)c1ccc(OC)c(Nc2ncc(-c3cccc(F)c3)o2)c1
inhibition [1]: 8% and 7% | inhibition [2]: 0% and 2% | inhibition [3]: 73% | inhibition [4]: 2% and 17%

Compound: NS(=O)(=O)c1ccc(N/C=C2\C(=O)Nc3ccc4ncsc4c32)cc1
inhibition [1]: 85% and 86% | inhibition [2]: -8% and -9% | inhibition [4]: -3% and -2% | inhibition [5]: -4% and -5%

Compound: [O-][S+]1CCN(Cc2ccc(-c3ccc4ncnc(Nc5ccc(OCc6ccccc6)c(F)c5)c4c3)o2)CC1
inhibition [1]: 5% and 2% | inhibition [2]: 1% | inhibition [4]: 5% | inhibition [5]: -4% and -10%
